Measurements as given in US20050100902A1, “5-cyano-1h-indole derivatives as antagonist of the inerleukine-8 receptors” (priority 2001, published 2005).

Which melting point does the source give for `N#Cc1ccc2[nH]c(-c3ccc(Cl)c(Cl)c3)c(CCCC(=O)O)c2c1` [Example 1, 2-(3,4-dichlorophenyl)-5-cyano-1H-indole-3-butanoic Acid] here?
Its melting point is 158 to 160 °C.
